# Data reported in patent US8993606B2, “Oral formulations for treating metal overload” (FerroKin BioSciences, Inc., priority 2011, dated 2015).
# Legend:
# [1] = Relative humidity stress (deliquescence, hygroscopicity); assay type: physicochemical
# healthy adult subjects = test: Safety: bioavailability study oral capsules versus oral solution in healthy subjects; assay type: in vivo
# Procedure: This study was a study in healthy adult subjects designed to compare the bioavailability of Compound 1 when administered as an oral capsule or solution. 24 subjects were enrolled and 22 completed the study: Subjects received a single oral dose of 16 mg/kg of Compound 1 as an oral capsule or as a solution. […] Treatment-emergent AEs were reported for 14 of the 24 subjects receiving Compound 1 (58%). […] TEAEs included headache (3 subjects), fever (2 subjects), nausea (2 subjects), lethargy (2 subjects), and loss of appetite (1 subject).
# [2] = tested on: patients with transfusional iron overload; test: Example 11: efficacy study, R2 liver iron concentration per FerriScan MRI (text: mg/g liver dw); assay type: in vivo, human
# Procedure: The goal of this experiment was to: 1. evaluate the safety and tolerability based on clinical assessments of two doses (16 and 32 mg/kg/d) of Compound 1 when administered daily for 24 weeks to patients with transfusional iron overload; 2. identify a differential response between dose groups in liver iron concentration determined by magnetic resonance imaging (MRI) after 24 weeks of dosing; and 3. assess the safety and efficacy activity of Compound 1 when administered daily for up to 96 weeks.
# This experiment is an open-label, randomized study of two dose levels (16 and 32 mg/kg/d) of Compound 1 administered once daily for 24 weeks to eligible patients with transfusional iron overload requiring chelation therapy, with a dosing extension of 72 additional weeks.
# Patients were assigned to one of two strate: “high” or “low” transfusion burden based on the average iron intake of the six transfusion sessions. Patients within each transfusion burden groups were randomized to one of two Compound 1 treatment arms: 16 mg/kg/d (16 mpk) or 32 mg/kg/d (32 mpk). The stratification followed by randomization to treatment arms helps to ensure an equal distribution of patients with “high” and “low” transfusion burdens to the high or low dose of Compound 1. Each treatment arm received one dose of Compound 1 daily for 24 weeks.
# At the conclusion of the 24 week dosing period, patients who qualify and consent to continue treatment continued for an additional 72 weeks of Compound 1 dosing.
# The inclusion of 25 patients in each treatment group provided a statistical power of 0.80 to detect, within 6 months, an LIC difference (normalized for initial LIC) of 3 mg/g dry weight between the two dose groups as determined by MRI. Baseline characteristics between dose groups were compared using Fisher extract test or Wilcoxon rank sum test as appropriate. The change in baseline to week 12, 24, and 72 values for all pharmacodynamics parameters were analyzed by an ANCOVA model with main effect for treatment group with baselines value for the corresponding parameters and transfusion burdon (iron input) during the study and baseline liver iron concentration as covariates comparing the two active treatment groups. T2* values were natural log transformed and summarized as the geometric mean (the antilog of the mean of the log data) plus or minus the co-efficient of variation (CV) defined as square root of eMSE where MSE is defined as the mean square error and subject to ANCOVA setting the p value as the threshold for statistical significance at 0.05 (confidence level of 95%).
# Conducted was a multicenter, randomized, open-label study of adult subjects with documented transfusional iron overload in need of chelation therapy. Transfusional iron overload was defined as LIC by R2 (FerriScan®) magnetic resonance imaging (MRI)≧3.5 mg/g liver dw or serum ferritin>500 ng/mL. Subjects received investigational product for 24 weeks with an extension of 72 weeks for the evaluation of long-term safety and efficacy. The 24-week and 48-week pharmacodynamics results are described in this section. A total of 51 subjects enrolled and 49 completed the initial 24-week treatment period.
# [3] = randomized to 16 mg/kg/d, dose adjustments after week 24
# [4] = randomized to 32 mg/kg/d, dose adjustments after week 24
structure (smiles),measurement,setting,value
"COCCOCCOCCOc1cccc(C2=N[C@@](C)(C(=O)O)CS2)c1O [Compound 1, (S)-4,5-Dihydro-2-[2-hydroxy-3-(3,6,9-trioxadecyloxy)phenyl]-4-methyl-4-thiazolecarboxylate magnesium hydroxide]",hygroscopicity,[1],non-hygroscopic
same,XRPD pattern after RH exposure,[1]; 75% RH for 8 days,remained unchanged
same,deliquescence,[1]; exposed to 75% RH for 8 days,did not deliquesce
same,subjects with treatment-emergent AEs,healthy adult subjects; 14 of the 24 subjects,58%
same,TEAE fever,healthy adult subjects; 24 subjects,2 subjects
same,TEAE headache,healthy adult subjects; 24 subjects,3 subjects
same,TEAE lethargy,healthy adult subjects; 24 subjects,2 subjects
same,TEAE loss of appetite,healthy adult subjects; 24 subjects,1 subject
same,TEAE nausea,healthy adult subjects; 24 subjects,2 subjects
same,"deaths, SAEs, withdrawals as the result of an AE",healthy adult subjects; single oral dose 16 mg/kg,"no deaths, no SAEs, and no withdrawals as the result of an AE"
same,intensity of all AEs,healthy adult subjects; single oral dose 16 mg/kg,mild or moderate intensity
same,tolerability,"healthy adult subjects; single oral dose 16 mg/kg, capsule or solution",well tolerated
same,"R2 LIC Change from Baseline to Week 12, Mean (SD)",[2]; 16 mg/kg/d,2.68 (4.050)
same,"R2 LIC Change from Baseline to Week 12, Median",[2]; 16 mg/kg/d,0.90
same,"R2 LIC Change from Baseline to Week 24, Mean (SD)",[2]; 16 mg/kg/d,3.08 (5.552)
same,"R2 LIC Change from Baseline to Week 24, Median",[2]; 16 mg/kg/d,1.10
same,"R2 LIC Week 12, Mean (SD)",[2]; 16 mg/kg/d,15.90 (9.446)
same,"R2 LIC Week 12, Median",[2]; 16 mg/kg/d,11.70
same,"R2 LIC Week 24, Mean (SD)",[2]; 16 mg/kg/d,16.31 (10.570)
same,"R2 LIC Week 24, Median",[2]; 16 mg/kg/d,11.50
same,"R2 LIC Change from Baseline to Week 12, Mean (SD)",[2]; 32 mg/kg/d,−0.22 (2.827)
same,"R2 LIC Change from Baseline to Week 12, Median",[2]; 32 mg/kg/d,0.10
same,"R2 LIC Change from Baseline to Week 24, Mean (SD)",[2]; 32 mg/kg/d,−0.27 (4.950)
same,"R2 LIC Change from Baseline to Week 24, Median",[2]; 32 mg/kg/d,0.20
same,"R2 LIC Week 12, Mean (SD)",[2]; 32 mg/kg/d,13.59 (8.684)
same,"R2 LIC Week 12, Median",[2]; 32 mg/kg/d,10.70
same,"R2 LIC Week 24, Mean (SD)",[2]; 32 mg/kg/d,13.25 (8.510)
same,"R2 LIC Week 24, Median",[2]; 32 mg/kg/d,9.30
same,LIC from baseline to Weeks 12 and 24,[2]; 16 mpk,statistically significant increase
same,LIC from baseline at the first 24 weeks,[2]; 32 mpk,remained relatively unchanged
same,"R2 LIC Change from Baseline to Week 12, Mean (SD)",[2]; Total (both dose groups),1.20 (3.740)
same,"R2 LIC Change from Baseline to Week 12, Median",[2]; Total (both dose groups),0.70
same,"R2 LIC Change from Baseline to Week 24, Mean (SD)",[2]; Total (both dose groups),1.37 (5.467)
same,"R2 LIC Change from Baseline to Week 24, Median",[2]; Total (both dose groups),0.50
same,"R2 LIC Change from Baseline to Week 48, Mean (SD)",[2]; Total (both dose groups),−0.63 (3.632)
same,"R2 LIC Change from Baseline to Week 48, Median",[2]; Total (both dose groups),−0.20
same,"R2 LIC Change from Baseline to Week 72, Mean (SD)",[2]; Total (both dose groups),−0.69 (4.975)
same,"R2 LIC Change from Baseline to Week 72, Median",[2]; Total (both dose groups),−0.80
same,"R2 LIC Week 12, Mean (SD)",[2]; Total (both dose groups),14.72 (9.046)
same,"R2 LIC Week 12, Median",[2]; Total (both dose groups),11.10
same,"R2 LIC Week 24, Mean (SD)",[2]; Total (both dose groups),14.75 (9.599)
same,"R2 LIC Week 24, Median",[2]; Total (both dose groups),11.00
same,"R2 LIC Week 48, Mean (SD)",[2]; Total (both dose groups),11.74 (7.813)
same,"R2 LIC Week 48, Median",[2]; Total (both dose groups),8.80
same,"R2 LIC Week 72, Mean (SD)",[2]; Total (both dose groups),11.31 (7.904)
same,"R2 LIC Week 72, Median",[2]; Total (both dose groups),8.70
same,mean change from baseline LIC,"[2]; Week 48, 19 subjects randomized to 16 mg/kg/day",0.1 mg/g
same,mean change from baseline LIC,"[2]; Week 48, 20 subjects originally randomized to 32 mg/kg/day",-1.3 mg/g
same,difference in the mean change from baseline between treatment groups,"[2]; at 24 weeks, p<0.03",3.4 mg/g
same,dose-response in iron chelating capacity,"[2]; between 16 and 32 mpk, first 24-weeks",clear dose-response
same,LIC from Week 24,[2]; doses of 32 mpk and greater,reduction in LIC
same,subjects with lower LIC at 24 weeks compared to Baseline,[2]; high dose group (32 mg/kg/day),11 of 25
same,mean change in LIC,"[2]; high dose group (32 mg/kg/day), 24 weeks",−0.3 mg/g liver (dw)
same,subjects with lower LIC at 24 weeks compared with Baseline,[2]; low dose group (16 mg/kg/day),7 of 24
same,mean change in LIC (net gain),"[2]; low dose group (16 mg/kg/day), 24 weeks",3.1 mg/g liver (dw)
same,"R2 LIC Change from Baseline to Week 48, Mean (SD)",[2]; [3],0.09 (4.015)
same,"R2 LIC Change from Baseline to Week 48, Median",[2]; [3],0.00
same,"R2 LIC Change from Baseline to Week 72, Mean (SD)",[2]; [3],0.52 (3.654)
same,"R2 LIC Change from Baseline to Week 72, Median",[2]; [3],0.50
same,"R2 LIC Week 48, Mean (SD)",[2]; [3],11.68 (6.369)
same,"R2 LIC Week 48, Median",[2]; [3],9.30
same,"R2 LIC Week 72, Mean (SD)",[2]; [3],10.74 (6.373)
same,"R2 LIC Week 72, Median",[2]; [3],9.40
same,"R2 LIC Change from Baseline to Week 48, Mean (SD)",[2]; [4],−1.32 (3.177)
same,"R2 LIC Change from Baseline to Week 48, Median",[2]; [4],−0.90
same,"R2 LIC Change from Baseline to Week 72, Mean (SD)",[2]; [4],−1.83 (5.853)
same,"R2 LIC Change from Baseline to Week 72, Median",[2]; [4],−1.80
same,"R2 LIC Week 48, Mean (SD)",[2]; [4],11.81 (9.145)
same,"R2 LIC Week 48, Median",[2]; [4],7.70
same,"R2 LIC Week 72, Mean (SD)",[2]; [4],11.84 (9.307)
same,"R2 LIC Week 72, Median",[2]; [4],8.70
